The text below walks through data of patent publication US8940738B2, “Pyrimidone compounds” (Mitsubishi Tanabe Pharma Corporation, priority 2009, dated 2015).

The term IC50 denotes the concentration that inhibits the measured activity by half. Lower therefore signals greater potency.

Molecules are shown by their SMILES.

The target of the experiment is bovine cerebral TPK1 (Bos taurus, UniProt A0A059UE90). As to the kind of experiment: Inhibitory activity against P-GS1 phosphorylation by bovine cerebral TPK1. Format: biochemical. The conditions noted are these: P-GS1 substrate, 41.7 μM [γ-32P] ATP, 25° C., 2 hours. How it is done: Experiment 1: Inhibitory Activity of the Medicament of the Present Invention Against P-GS1 Phosphorylation by Bovine Cerebral TPK1
A mixture containing 100 mM MES-sodium hydroxide (pH 6.5), 1 mM magnesium acetate, 0.5 mM EGTA, 5 mM β-mercaptoethanol, 0.02% Tween 20, 10% glycerol, 12 μg/ml P-GS1, 41.7 μM [γ^−32P] ATP (68 kBq/ml), bovine cerebral TPK1 and a compound shown in Table (a final mixture contained 1.7% DMSO deriving from a solution of a test compound prepared in the presence of 10% DMSO) was used as a reaction system. The phosphorylation was started by adding ATP, and the reaction was conducted at 25° C. for 2 hours, and then stopped by adding 21% perchloric acid on ice cooling. The reaction mixture was centrifuged at 12,000 rpm for 5 minutes and adsorbed on P81 paper (Whatmann), and then the paper was washed four times with 75 mM phosphoric acid, three times with water and once with acetone. The paper was dried, and the residual radioactivity was measured using a liquid scintillation counter.

Sequence of bovine cerebral TPK1 (A0A059UE90 1-419): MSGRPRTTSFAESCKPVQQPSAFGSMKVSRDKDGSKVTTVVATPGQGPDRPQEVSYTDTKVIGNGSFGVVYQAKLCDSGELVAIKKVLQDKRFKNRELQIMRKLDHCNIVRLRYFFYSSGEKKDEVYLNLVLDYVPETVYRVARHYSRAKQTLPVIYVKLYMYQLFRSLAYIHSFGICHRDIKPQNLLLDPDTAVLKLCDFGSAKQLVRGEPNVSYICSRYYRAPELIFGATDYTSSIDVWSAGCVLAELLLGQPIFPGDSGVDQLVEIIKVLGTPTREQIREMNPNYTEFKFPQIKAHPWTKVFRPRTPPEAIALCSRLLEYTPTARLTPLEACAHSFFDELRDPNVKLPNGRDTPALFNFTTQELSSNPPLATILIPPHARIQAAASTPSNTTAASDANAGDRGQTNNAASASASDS

In turn, `Cn1c(N2CCNC(c3ccc(C#N)cc3)C2)nc(-c2ncncc2F)cc1=O` (centres unmarked) [Compound 6, 4-[4-(5′-Fluoro-1-methyl-6-oxo-1,6-dihydro-[4,4′]bipyrimidinyl-2-yl)-piperazin-2yl]-benzonitrile] gave an IC50 of 0.0101 µM. The figure for `Cn1c(N2CCO[C@@H](c3ccc(F)cc3)C2)nc(-c2ncncc2F)cc1=O` [Compound 1, (S)-5′-fluoro-2-[2-(4-fluoro-phenyl)-morpholin-4-yl]-1-methyl-1H-[4,4′]bipyrimidinyl-6-one] is 0.0155 µM.
